Patent US5593985A, “Cephalosporin compounds” (priority 1994, dated 1997)
Converted amounts (≈) assume the structure as drawn. Like-named read-outs stand apart in the source and are kept apart here.

Assays:
Format in all cases: cell-based
[1] = test system: Streptococcus pyogenes A 308; experiment: MIC, standard strain 1; conditions: read-out: Minimal Inhibitory Concentration(MIC)
Method: (§1) In order to illustrate antibiotic effectiveness of the compounds of the present invention, the minimal inhibitory concentrations (MIC's) of the representative compounds were determined against standard strains and compared with ceftazidime and cefpirome, which were used as control compounds.
(§2) The MIC values were taken by employing a two-fold dilution method: that is, two-fold serial dilutions of each of the test compounds were made from initial concentration of […]; each 1.5 ml of them was dispersed in 13.5 ml of Muller Hinton agar medium to adjust to […]; the standard test strain which had the concentration of 10^7 CFU/ml was inoculated by medium;and these were incubated at 37° C. for 18 hours.
(§3) The test used twenty kinds of standard test strains which induced urinary tract infections, respiratory organ infections, skin soft tissue infections, plasma infections, gastrointestinal infections, central nervous system infections, most of which produce β-lactamase. The standard test strains used are as follows:
1. Streptococcus pyogenes A 308

[2] = test system: Streptococcus pyogenes A 77; experiment: MIC, standard strain 2; conditions: A77, S. pyogenes A 77, two-fold dilution, Muller Hinton agar, 10^7 CFU/ml, 37° C., 18 hours, read-out: Minimal Inhibitory Concentration(MIC)
Method: as §1, §2, §3
2. Streptococcus pyogenes A 77

Streptococcus faecium 8b = experiment: MIC, standard strain 3; conditions: Enterococcus faecium; S. faecium 8b; two-fold dilution, Muller Hinton agar, 10^7 CFU/ml, 37° C., 18 hours; read-out: Minimal Inhibitory Concentration(MIC)
Method: as §1, §2, §3
3. Streptococcus faecium 8b

[3] = test system: Staphylococcus aureus SG 511; experiment: MIC, standard strain 4; conditions: SG511, S. aureus SG 511, two-fold dilution, Muller Hinton agar, 10^7 CFU/ml, 37° C., 18 hours, read-out: Minimal Inhibitory Concentration(MIC)
Method: as §1, §2, §3
4. Staphylococcus aureus SG 511

[4] = test system: Staphylococcus aureus 285; experiment: MIC, standard strain 5; conditions: Staphylococcus aureus; S. aureus 285; two-fold dilution, Muller Hinton agar, 10^7 CFU/ml, 37° C., 18 hours; read-out: Minimal Inhibitory Concentration(MIC)
Method: as §1, §2, §3
5. Staphylococcus aureus 285

[5] = test system: Staphylococcus aureus 503; experiment: MIC, standard strain 6; conditions: Staphylococcus aureus; S. aureus 503; two-fold dilution, Muller Hinton agar, 10^7 CFU/ml, 37° C., 18 hours; read-out: Minimal Inhibitory Concentration(MIC)
Method: as §1, §2, §3
6. Staphylococcus aureus 503

Escherichia coli 0 55 = experiment: MIC, standard strain 7; conditions: 055, E. coli 0 55, two-fold dilution, Muller Hinton agar, 10^7 CFU/ml, 37° C., 18 hours, read-out: Minimal Inhibitory Concentration(MIC)
Method: as §1, §2
(§4) The test used twenty kinds of standard test strains which induced urinary tract infections, respiratory organ infections, skin soft tissue infections, plasma infections, gastrointestinal infections, central nervous system infections, most of which produce β-lactamase.

Escherichia coli DC 0 = experiment: MIC, standard strain 8; conditions: DC0, E. coli DC 0, two-fold dilution, Muller Hinton agar, 10^7 CFU/ml, 37° C., 18 hours, read-out: Minimal Inhibitory Concentration(MIC)
Method: as §1, §2, §4

Escherichia coli DC 2 = experiment: MIC, standard strain 9; conditions: DC2, E. coli DC 2, two-fold dilution, Muller Hinton agar, 10^7 CFU/ml, 37° C., 18 hours, read-out: Minimal Inhibitory Concentration(MIC)
Method: as §1, §2, §4

Escherichia coli TEM = experiment: MIC, standard strain 10; conditions: 18 h, read-out: Minimal Inhibitory Concentration(MIC)
Method: as §1, §2, §4

Escherichia coli 1507 E = experiment: MIC, standard strain 11; conditions: E. coli 1507 E, two-fold dilution, Muller Hinton agar, 10^7 CFU/ml, 37° C., 18 hours, read-out: Minimal Inhibitory Concentration(MIC)
Method: as §1, §2, §4

[6] = test system: Pseudomonas aeruginosa 9.027; experiment: MIC, standard strain 12; conditions: Pseudomonas aeruginosa; P. aeruginosa 9.027; two-fold dilution, Muller Hinton agar, 10^7 CFU/ml, 37° C., 18 hours; read-out: Minimal Inhibitory Concentration(MIC)
Method: as §1, §2, §3
12. Pseudomonas aeruginosa 9.027

[7] = test system: Pseudomonas aeruginosa 1592 E; experiment: MIC, standard strain 13; conditions: P. aeruginosa 1592 E, two-fold dilution, Muller Hinton agar, 10^7 CFU/ml, 37° C., 18 hours, read-out: Minimal Inhibitory Concentration(MIC)
Method: as §1, §2, §3
13. Pseudomonas aeruginosa 1592 E

[8] = test system: Pseudomonas aeruginosa 1771; experiment: MIC, standard strain 14; conditions: Pseudomonas aeruginosa; P. aeruginosa 1771; two-fold dilution, Muller Hinton agar, 10^7 CFU/ml, 37° C., 18 hours; read-out: Minimal Inhibitory Concentration(MIC)
Method: as §1, §2, §3
14. Pseudomonas aeruginosa 1771

[9] = test system: Pseudomonas aeruginosa 1771M; experiment: MIC, standard strain 15; conditions: 18 h, read-out: Minimal Inhibitory Concentration(MIC)
Method: as §1, §2, §3
15. Pseudomonas aeruginosa 1771M

Salmonella typhimurium = experiment: MIC, standard strain 16; conditions: Salmonella enterica; S. typhimurium; two-fold dilution, Muller Hinton agar, 10^7 CFU/ml, 37° C., 18 hours; read-out: Minimal Inhibitory Concentration(MIC)
Method: as §1, §2, §3
16. Salmonella typhimurium

[10] = test system: Klebsiella aerogenes 1552 E; experiment: MIC, standard strain 18; conditions: K. aerogenes 1552 E, two-fold dilution, Muller Hinton agar, 10^7 CFU/ml, 37° C., 18 hours, read-out: Minimal Inhibitory Concentration(MIC)
Method: as §1, §2, §3
18. Klebsiella aerogenes 1552 E

[11] = test system: Enterobacter cloacae P 99; experiment: MIC, standard strain 19; conditions: P99, 18 h, read-out: Minimal Inhibitory Concentration(MIC)
Method: as §1, §2, §3
19. Enterobacter cloacae P 99

[12] = test system: Enterobacter cloacae 1321 E; experiment: MIC, standard strain 20; conditions: read-out: Minimal Inhibitory Concentration(MIC)
Method: as §1, §2, §3
20. Enterobacter cloacae 1321 E

[13] = A308, S. pyogenes A 308, two-fold dilution, Muller Hinton agar, 10^7 CFU/ml, 37° C., 18 hours
[14] = E. cloacae 1321 E, two-fold dilution, Muller Hinton agar, 10^7 CFU/ml, 37° C., 18 hours

With `NC(=O)c1cc[n+](CC2=C(C(=O)[O-])N3C(=O)[C@@H](NC(=O)/C(=N\OCCF)c4csc(N)n4)[C@H]3SC2)c2c1CCC2` [Example 14, 7-β-[(Z)-2-(2-aminothiazol-4-yl)-2-(2-fluoroethoxyimino)acetamido]-3-[(2,3-cyclopenteno-4-carbamoyl-l-pyridinium)methyl]-3-cephem-4-carboxylate] the MIC [1, 13] was 13 µg/mL (≈ 22 µM), the MIC [2] was 13 µg/mL (≈ 22 µM) and the MIC (Streptococcus faecium 8b) was 25000 µg/mL (≈ 42400 µM). The MIC [3] was 781 µg/mL (≈ 1320 µM), the MIC [4] was 3120 µg/mL (≈ 5300 µM) and the MIC [5] was 781 µg/mL (≈ 1320 µM). The MIC (Escherichia coli 0 55) was 13 µg/mL (≈ 22 µM), the MIC (Escherichia coli DC 0) was 49 µg/mL (≈ 83.1 µM) and the MIC (Escherichia coli DC 2) was 49 µg/mL (≈ 83.1 µM). The MIC (Escherichia coli TEM) was 98 µg/mL (≈ 166 µM), the MIC (Escherichia coli 1507 E) was 49 µg/mL (≈ 83.1 µM) and the MIC [6] was 6250 µg/mL (≈ 10600 µM). It also gave an MIC [7] of 6250 µg/mL (≈ 10600 µM), an MIC [8] of 781 µg/mL (≈ 1320 µM) and an MIC [9] of 391 µg/mL (≈ 663 µM). It also gave an MIC (Salmonella typhimurium) of 49 µg/mL (≈ 83.1 µM), an MIC [10] of 49 µg/mL (≈ 83.1 µM) and an MIC [11] of 12500 µg/mL (≈ 21200 µM). The MIC ([12]; 1321E, 18 h) was 25 µg/mL (≈ 42.4 µM).
`CO/N=C(\C(=O)N[C@@H]1C(=O)N2C(C(=O)[O-])=C(C[n+]3ccc(C(=O)O)c4c3CCC4)CS[C@H]12)c1csc(N)n1` [Example 2] showed an MIC [1, 13] of 25 µg/mL (≈ 44.8 µM), an MIC [2] of 7 µg/mL (≈ 12.5 µM) and an MIC (Streptococcus faecium 8b) of 25000 µg/mL (≈ 44800 µM). It also gave an MIC [3] of 6250 µg/mL (≈ 11200 µM), an MIC [4] of 6250 µg/mL (≈ 11200 µM) and an MIC [5] of 3120 µg/mL (≈ 5590 µM). The MIC (Escherichia coli 0 55) was 25 µg/mL (≈ 44.8 µM), the MIC (Escherichia coli DC 0) was 49 µg/mL (≈ 87.7 µM) and the MIC (Escherichia coli DC 2) was 49 µg/mL (≈ 87.7 µM). It also gave an MIC (Escherichia coli TEM) of 781 µg/mL (≈ 1400 µM), an MIC (Escherichia coli 1507 E) of 25 µg/mL (≈ 44.8 µM) and an MIC [6] of 12500 µg/mL (≈ 22400 µM). For the same compound, the MIC [7] was 12500 µg/mL (≈ 22400 µM), the MIC [8] was 3120 µg/mL (≈ 5590 µM) and the MIC [9] was 391 µg/mL (≈ 700 µM). It also gave an MIC (Salmonella typhimurium) of 49 µg/mL (≈ 87.7 µM), an MIC [10] of 25 µg/mL (≈ 44.8 µM) and an MIC [11] of 100000 µg/mL (≈ 179000 µM). It also gave an MIC [12, 14] of 25 µg/mL (≈ 44.8 µM).
For `CO/N=C(\C(=O)N[C@@H]1C(=O)N2C(C(=O)[O-])=C(C[n+]3ccc(NC=O)c4c3CCC4)CS[C@H]12)c1csc(N)n1` [Example 19], the MIC [1, 13] was under 2 µg/mL, the MIC [2] was under 2 µg/mL and the MIC (Streptococcus faecium 8b) was 25000 µg/mL (≈ 44800 µM). It also gave an MIC [3] of 391 µg/mL (≈ 701 µM), an MIC [4] of 391 µg/mL (≈ 701 µM) and an MIC [5] of 98 µg/mL (≈ 176 µM). It also gave an MIC (Escherichia coli 0 55) of 7 µg/mL (≈ 12.6 µM), an MIC (Escherichia coli DC 0) of 13 µg/mL (≈ 23.3 µM) and an MIC (Escherichia coli DC 2) of 13 µg/mL (≈ 23.3 µM). It also gave an MIC (Escherichia coli TEM) of 49 µg/mL (≈ 87.9 µM), an MIC (Escherichia coli 1507 E) of 98 µg/mL (≈ 176 µM) and an MIC [6] of 12500 µg/mL (≈ 22400 µM). For the same compound, the MIC [7] was 12500 µg/mL (≈ 22400 µM), the MIC [8] was 12500 µg/mL (≈ 22400 µM) and the MIC [9] was 1560 µg/mL (≈ 2800 µM). The MIC (Salmonella typhimurium) was 195 µg/mL (≈ 350 µM), the MIC [10] was 49 µg/mL (≈ 87.9 µM) and the MIC [11] was 12500 µg/mL (≈ 22400 µM). It also gave an MIC [12, 14] of 7 µg/mL (≈ 12.6 µM).
For `CCO/N=C(\C(=O)N[C@@H]1C(=O)N2C(C(=O)[O-])=C(C[n+]3ccc(C(N)=O)c4c3CCC4)CS[C@H]12)c1csc(N)n1` [Example 13, 7-β-[(Z)-2-(2-aminothiazol-4-yl)-2-ethoxyiminoacetamido]-3-[(2,3-cyclopenteno-4-carbamoyl-1-pyridinium)methyl]-3-cephem-4-carboxylate], the MIC ([1]; A308, 18 h) was 13 µg/mL (≈ 22.7 µM), the MIC [2] was 4 µg/mL (≈ 7 µM) and the MIC (Streptococcus faecium 8b) was 50000 µg/mL (≈ 87500 µM). For the same compound, the MIC [3] was 781 µg/mL (≈ 1370 µM), the MIC [4] was 3120 µg/mL (≈ 5470 µM) and the MIC [5] was 391 µg/mL (≈ 684 µM). It also gave an MIC (Escherichia coli 0 55) of 25 µg/mL (≈ 43.7 µM), an MIC (Escherichia coli DC 0) of 98 µg/mL (≈ 171 µM) and an MIC (Escherichia coli DC 2) of 49 µg/mL (≈ 85.7 µM). For the same compound, the MIC (Escherichia coli TEM) was 195 µg/mL (≈ 341 µM), the MIC (Escherichia coli 1507 E) was 98 µg/mL (≈ 171 µM) and the MIC [6] was 6250 µg/mL (≈ 10900 µM). For the same compound, the MIC [7] was 3120 µg/mL (≈ 5470 µM), the MIC [8] was 1560 µg/mL (≈ 2730 µM) and the MIC [9] was 195 µg/mL (≈ 341 µM). The MIC (Salmonella typhimurium) was 49 µg/mL (≈ 85.7 µM), the MIC [10] was 49 µg/mL (≈ 85.7 µM) and the MIC [11] was 12500 µg/mL (≈ 21900 µM). The MIC [12, 14] was 25 µg/mL (≈ 43.7 µM).
